One compound from patent US20210219550A1, “PEST CONTROL COMPOSITIONS AND USES THEREOF” (Flagship Pioneering Innovations VI, LLC, priority 2018, published 2021) can be followed below.

In data set [1] the test system is Arabidopsis thaliana seedlings. The experiment in a line: Treatment of Arabidopsis thaliana seedlings with doxorubicin-loaded PMPs (cytotoxicity: leaf vigor, leaf color, root length). The data set is classed as in vivo. The following applies: 7-day old seedlings, 24 hours treatment, 3 further days; doses tested 25, 50, 100 μM.
Another data set deals with Saccharomyces cerevisiae. The experiment in a line: Treatment of bacteria and yeast with DOX-loaded grapefruit PMPs (kinetic OD600, relative OD). The following applies: S. cerevisiae, effective DOX 5-100 μM. As to the method: (§1) Bacteria and yeast strains were maintained as indicated by the supplier: E. coli(ATCC, #25922) was grown on Trypticase Soy Agar/broth at 37° C., Pseudomonas aeruginosa (ATCC) was grown on Tryptic soy Agar/broth with […] rifampicin at 37° C., Pseudomonas syringae pv. tomato str. DC3000 bacteria (ATCC, #BAA-871) was grown on King's Medium B agar with […] rifampicin at 30° C., and Saccharomyces cerevisiae (ATCC, #9763) was grown on yeast extract peptone dextrose broth (YPD) and maintained at 30° C. Prior to treatment, fresh one day cultures were grown overnight, the OD (600 nm) was adjusted to 0.1 OD with medium prior to use, and bacteria/yeast were transferred to a 96 well plate for treatment (duplicate samples, 100 μl/well). […] Plates were covered with aluminum foil, and incubated at 37° C. (E. coli, P. aeruginosa), or 30° C. (S. cerevisiae, P. syringae) and agitated at 220 rpm.
(§2) A kinetic Absorbance measurement at 600 nm was performed on a SpectraMax® spectrophotometer to monitor the OD of the cultures at t=0 h, t=1 h, t=2 h, t=3 h, t=4.5 h, t=16 h (E. coli, P. aeruginosa) or t=0.5 h, t=1.5 h, t=2.5 h, t=3.5 h, t=4 h, t=16 h (P. syringae, S. cerevisiae).
(§3) To compare the cytotoxic effect of PMP-DOX treatment on different bacterial and yeast strains, within each treatment group the relative OD was determined as compared to the untreated control (set to 100%).

Another data set has as its system Pseudomonas aeruginosa. Described as above. To be noted: P. aeruginosa, effective DOX 5-100 μM. As to the method: as §1, §2, §3
The next data set has as its system E. coli. The data set is described as above. To be noted: effective DOX 5-100 μM. As to the method: as §1, §2, §3
Data set [2] has as its system Pseudomonas syringae pv. tomato str. DC3000. The description is as above. The following applies: P. syringae, effective DOX 5-100 μM. As to the method:
as §1, §2, §3

`COc1cccc2c1C(=O)c1c(O)c3c(c(O)c1C2=O)C[C@@](O)(C(=O)CO)C[C@@H]3O[C@H]1C[C@H](N)[C@H](O)[C@H](C)O1` [free doxorubicin, doxorubicin]: in data set [1], the “DOX dose at which cytotoxicity was shown” value is 100 µM. Further, the “cytotoxic effect (relative OD vs untreated control), in words” value (in the data set with Saccharomyces cerevisiae; with Pseudomonas aeruginosa; in the data set with E. coli; in data set [2]) was “cytotoxicity is induced earlier than with PMP-DOX delivery” throughout.
